According to patent US20170327598A1, “SINGLE DOMAIN ANTIBODIES DIRECTED AGAINST INTRACELLULAR ANTIGENS” (SINGH MOLECULAR MEDICINE, LLC, priority 2014, published 2017):
Where “and” joins values, the source holds several entries; their conditions need not be identical. Equal values may be shown once.

Legend:
PANC-1 cells = assay: MTT proliferation assay, PANC-1; assay type: cell-based, human; conditions: for Mean Absorbance (570 nM) ± S.E.: single experiments 1-3, listed as B.VHH13
MDA-MB-468 cells = assay: MTT proliferation assay, MDA-MB-468; assay type: cell-based, human; conditions: MDA-MB-468, 72 hours
HT1080 cells = assay: Anti-proliferative effect, HT1080 cells; assay type: cell-based; conditions: for Absorbance ± S.E.: 72 hr
SJSA cells = assay: Anti-proliferative effect, SJSA cells; assay type: cell-based; conditions: for Absorbance ± S.E.: 72 hr
U87 mg cells = assay: Anti-proliferative effect, U87 mg cells; assay type: cell-based; conditions: for Absorbance ± S.E. / % Inhibition: 72 hr
MDA-MB 231 cells = assay: Internalization of sdAb, anti-His tag staining, MDA-MB 231; assay type: cell-based; conditions: 18 hours
Experimental: An anti-HIV-1 Reverse Transcriptase (RT) sdAb was used as a negative control.
The slides were incubated for 18 hours after sdAb addition. The chambers were briefly rinsed with media and fixed in ice-cold methanol for 5-10 min. The chambers were then dried and stained with a fluorescent anti-His tag antibody (1:200)(Novus Biologicals, Littleton, Colo.) for 45 min at room temperature. The slides were rinsed in PBS for 5 minutes and mounted.

human KRAS = assay: Biacore 3000 protein binding, KRAS ligand immobilized (Example 22); conditions: sdAb as analyte
[1] = test system: VEGF-A production in ARPE-19 cells; assay: VEGF-A ELISA in ARPE-19 retinal cells, Experiment 1; assay type: cell-based, human; conditions: for Mean (pg VEGF-A per mL): mean of Adj. Result, Wells 1-3; for Mean (pg VEGF-A per μg protein): mean of Wells 1-3; for % Control: normalized for protein; for Adj. Result (pg VEGF-A per mL) / Result (pg VEGF-A per mL): 72 Hr; for Adj. Result (pg VEGF-A per mL): per well, adjusted for dilution; for Result (pg VEGF-A per mL): single reads, higher than top of standard curve

Question: With “Anti-STAT3 VHH13: anti-STAT3 single domain antibody, SEQ ID NO:3; bacterially produced form referred to as SBT-100” as the substance, how does the “Mean Absorbance (570 nM) ± S.E., Overall Mean” value (“Mean Absorbance … Overall Mean” for short) (PANC-1 cells; PANC-1, Day 3, 10.0 μg/ml) read?
Answer: 0.472 ± 0.020

Question: And the “Mean Absorbance (570 nM) ± S.E.” value (PANC-1 cells; PANC-1, Day 3, 10.0 μg/ml)?
Answer: 0.432 ± 0.015 and 0.491 ± 0.087 and 0.493 ± 0.029

Question: And the “Mean Absorbance … Overall Mean” value (PANC-1 cells; PANC-1, Day 3, 100 μg/ml)?
Answer: 0.214 ± 0.047

Question: What about the “Mean Absorbance (570 nM) ± S.E.” value (PANC-1 cells; PANC-1, Day 3, 100 μg/ml) of the same substance?
Answer: 0.307 ± 0.012 and 0.169 ± 0.094 and 0.166 ± 0.028

Question: And the “Mean Absorbance … Overall Mean” value (PANC-1 cells; PANC-1, Day 5, 10.0 μg/ml)?
Answer: 0.643 ± 0.126

Question: What about the “Mean Absorbance … Overall Mean” value (PANC-1 cells; PANC-1, Day 5, 100 μg/ml) of the same substance?
Answer: 0.219 ± 0.012

Question: And the “Mean Absorbance (570 nM) ± S.E.” value (PANC-1 cells; PANC-1, Day 5, 100 μg/ml)?
Answer: 0.243 ± 0.024 and 0.211 ± 0.006 and 0.203 ± 0.013

Question: What about the “Mean Abs” value (MDA-MB-468 cells; 0.39 μg/ml) of the same substance?
Answer: 0.311

Question: What about the “% Inhibition” value (MDA-MB-468 cells; 3.13 μg/ml) of the same substance?
Answer: 11.9%

Question: And the “Mean Abs” value (MDA-MB-468 cells; 3.13 μg/ml)?
Answer: 0.223

Question: And the “% Inhibition” value (MDA-MB-468 cells; 6.25 μg/ml)?
Answer: 9.1%

Question: What about the “Mean Abs” value (MDA-MB-468 cells; 6.25 μg/ml) of the same substance?
Answer: 0.230

Question: And the “% Inhibition” value (MDA-MB-468 cells; 25 μg/ml)?
Answer: 73.5%

Question: And the “Mean Abs” value (MDA-MB-468 cells; 25 μg/ml)?
Answer: 0.067

Question: What about the “% Inhibition” value (MDA-MB-468 cells; 50 μg/ml) of the same substance?
Answer: 83.4%

Question: And the “Mean Abs” value (MDA-MB-468 cells; 50 μg/ml)?
Answer: 0.042

Question: And the “% Inhibition” value (MDA-MB-468 cells; 100 μg/ml)?
Answer: 85.0%

Question: What about the “Mean Abs” value (MDA-MB-468 cells; 100 μg/ml) of the same substance?
Answer: 0.038

Question: What about the “% Inhibition” value (MDA-MB-468 cells; 200 μg/ml) of the same substance?
Answer: 84.4%

Question: What about the “Mean Abs” value (MDA-MB-468 cells; 200 μg/ml) of the same substance?
Answer: 0.040

Question: And the “Absorbance ± S.E.” value (HT1080 cells; 25 μg/ml)?
Answer: 1.09 ± 0.01

Question: And the “Absorbance ± S.E.” value (HT1080 cells; 50 μg/ml)?
Answer: 0.42 ± 0.04

Question: What about the “Absorbance ± S.E.” value (HT1080 cells; 100 μg/ml) of the same substance?
Answer: 0.27 ± 0.01

Question: What about the “Absorbance ± S.E.” value (HT1080 cells; 200 μg/ml) of the same substance?
Answer: 0.22 ± 0.02

Question: And the IC50 (HT1080 cells; HT1080 cells)?
Answer: 33 µg/mL

Question: What about the “Absorbance ± S.E.” value (SJSA cells; 25 μg/ml) of the same substance?
Answer: 1.36 ± 0.09

Question: What about the “Absorbance ± S.E.” value (SJSA cells; 50 μg/ml) of the same substance?
Answer: 0.90 ± 0.04

Question: And the “Absorbance ± S.E.” value (SJSA cells; 100 μg/ml)?
Answer: 0.27 ± 0.01

Question: What about the “Absorbance ± S.E.” value (SJSA cells; 200 μg/ml) of the same substance?
Answer: 0.26 ± 0.01

Question: And the IC50 (SJSA cells; SJSA cells)?
Answer: 51 µg/mL

Question: What about the “Absorbance ± S.E.” value (U87 mg cells; 25 μg/ml) of the same substance?
Answer: 0.687 ± 0.03

Question: What about the “% Inhibition” value (U87 mg cells; 50 μg/ml) of the same substance?
Answer: 18%

Question: What about the “Absorbance ± S.E.” value (U87 mg cells; 50 μg/ml) of the same substance?
Answer: 0.456 ± 0.01

Question: What about the “% Inhibition” value (U87 mg cells; 100 μg/ml) of the same substance?
Answer: 51%

Question: What about the “Absorbance ± S.E.” value (U87 mg cells; 100 μg/ml) of the same substance?
Answer: 0.271 ± 0.02

Question: What about the “% Inhibition” value (U87 mg cells; 200 μg/ml) of the same substance?
Answer: 62%

Question: What about the “Absorbance ± S.E.” value (U87 mg cells; 200 μg/ml) of the same substance?
Answer: 0.211 ± 0.03

Question: And the IC50 (U87 mg cells; U87 mg cells)?
Answer: 65 µg/mL

Question: And the “Absorbance ± S.E.” value (U87 mg cells; […])?
Answer: 0.702 ± 0.04

Question: And the “internalization, anti-His tag staining” value (MDA-MB 231 cells)?
Answer: positive cytoplasmic staining

Question: And the “binding to KRAS ligand” value (human KRAS)?
Answer: bound

Question: And the “% Negative Control” value ([1]; 0.1 μg/well, 24 Hr)?
Answer: 71.1%

Question: And the “Mean (pg VEGF-A per mL)” value ([1]; 0.1 μg/well, 24 Hr)?
Answer: 2060 pg VEGF-A per mL

Question: What about the “Mean (pg VEGF-A per μg protein)” value ([1]; 0.1 μg/well, 24 Hr) of the same substance?
Answer: 66 pg VEGF-A per μg protein

Question: What about the “% Control” value ([1]; 0.1 μg/well, 24 Hr) of the same substance?
Answer: 76.8%

Question: And the “Adj. Result (pg VEGF-A per mL)” value ([1]; 0.1 μg/well)?
Answer: >12,000 pg VEGF-A per mL

Question: What about the “Result (pg VEGF-A per mL)” value ([1]; 0.1 μg/well) of the same substance?
Answer: >6,000 pg VEGF-A per mL

Question: What about the “Mean (pg VEGF-A per mL)” value ([1]; 0.5 μg/well, 24 Hr) of the same substance?
Answer: 2664 pg VEGF-A per mL

Question: And the “Mean (pg VEGF-A per μg protein)” value ([1]; 0.5 μg/well, 24 Hr)?
Answer: 99 pg VEGF-A per μg protein

Question: And the “% Control” value ([1]; 0.5 μg/well, 24 Hr)?
Answer: 115.8%

Question: And the “Adj. Result (pg VEGF-A per mL)” value ([1]; 0.5 μg/well)?
Answer: >12,000 pg VEGF-A per mL

Question: What about the “Result (pg VEGF-A per mL)” value ([1]; 0.5 μg/well) of the same substance?
Answer: >6,000 pg VEGF-A per mL
